The subject of assay [1] is hepatitis B virus. The assay can be described thus: Antiviral action on hepatitis B virus in HepG2.2.15 cells (HBV DNA dot-blot hybridization). It is filed as cell-based. The following applies: 50% reduction of intra- or extracellular hepatitis B-specific band. Here is the method:
The antiviral action of the compounds of the invention on hepatitis B virus is investigated by methods based on those described by M. A. Sells et al., Proc. Natl. Acad. Sci., 84, 1005-1009 (1987) and B. E. Korba et al., Antiviral Research 19, 55-70 (1992).
The antiviral tests are carried out in 96-well microtiter plates. The first vertical row of the plate receives only growth medium and HepG2.2.15 cells. It serves as virus control.
Stock solutions of the test compounds (50 mM) are initially dissolved in DMSO, and further dilutions are prepared in the HepG2.2.15 growth medium. The compounds according to the invention are usually pipetted in a test concentration of 100 μM (1st test concentration) in each case into the second vertical test row of the microtiter plate and subsequently diluted in twofold steps […] in growth medium plus 2% by weight of fetal calf serum (volume 25 μl)
Each well of the microtiter plate then contains 225 μl of HepG2.2.15 cell suspension (5×10^4 cells/ml) in growth medium plus 2% by weight of fetal calf serum. The test mixture is incubated at 37° C. and 5% CO2 (v/v) for 4 days.
The supernatant is then aspirated off and discarded, and the wells receive 225 μl of freshly prepared growth medium. The compounds according to the invention are each added anew as 10-fold concentrated solution in a volume of 25 μl. The mixtures are incubated for a further 4 days
The supernatant and/or cells are then harvested and sucked by means of a vacuum onto 96-well dot-blot chambers covered with a nylon membrane (in accordance with the manufacturer's information).
After the supernatants or lysed cells is transferred to the nylon membrane of the blot apparatus (see above), the intra- or extracellular supernatants of the HepG2.2.15 cells are denatured (1.5 M NaCl/0.5 N NaOH), neutralized (3 M NaCl/0.5M Tris HCl, pH 7.5) and washed (2×SSC). The DNA is then baked onto the membrane by incubating the filters at 120° C. for 2-4 hours.
Detection of the viral DNA from the treated HepG2.2.15 cells on the nylon filters is usually carried out with nonradioactive, digoxigenin-labeled hepatitis B-specific DNA probes, each of which is labeled with digoxigenin, purified and employed for the hybridization in accordance with the manufacturer's information.
The prehybridization and hybridization take place in 5×SSC, 1×blocking reagent, 0.1% by weight N-lauroylsarcosine, 0.02% by weight SDS and 100 μg of herring sperm DNA. The prehybridization takes place at 60° C. for 30 minutes, and the specific hybridization takes place with 20 to 40 ng/ml of the digoxigenized, denatured HBV-specific DNA (14 hours, 60° C.). The filters are then washed.
The immunological detection of the digoxigenin-labeled DNA took place in accordance with the manufacturer's information: […]

The subject of assay [2] is hepatitis B virus. The following applies: examples of U.S. Pat. No. 7,074,784, values as described in that patent; cited from earlier work.
The mark [3] stands for this setting: Hepatitis B virus, HepG2.2.15, HepG2.2.15 cells.

The IC50 is the concentration at which inhibition is half-maximal.

Where two headings read alike, the source gives them in different places.

In the assay with hepatitis B virus [1] (HepG2.2.15 cells), `CCOC(=O)C1=C(CN2CCOCC2)NC(c2nccs2)=NC1c1ccc(F)cc1Br` (single isomer, unassigned; (-)) [(−)-5] had a 50% inhibitory concentration (IC50) of 0.1 nM.

Take `COC(=O)C1=C(CN2CCOCC2)NC(c2nccs2)=NC1c1ccc(F)cc1Br` (single isomer, unassigned; (-)) [(−)-6]: the IC50 in the assay on hepatitis B virus [1] (HepG2.2.15 cells) is 0.2 nM.

For the compound `CCOC(=O)C1=C(CN2CCOCC2)NC(c2nccs2)=NC1c1ccc(F)cc1Br` (centres unmarked) [Example 5, Ethyl 4-(2-bromo-4-fluorophenyl)-2-(thiazol-2-yl)-6-(4-morpholinylmethy)-1,4-dihydropyrimidine-5-carboxylic ester], the IC50 is 0.2 nM in the assay with hepatitis B virus [1] (setting [3]) and 2 to 4 nM in the assay with hepatitis B virus [2].

Turning to `COC(=O)C1=C(CN2CCOCC2)NC(c2nccs2)=NC1c1ccc(F)cc1Br` (centres unmarked) [Example 6, Methyl 4-(2-bromo-4-fluorophenyl)-2-(thiazol-2-yl)-6-(4-morpholinylmethy)-1,4-dihydropyrimidine-5-carboxylic ester], half-maximal inhibition in the assay with hepatitis B virus [1] (setting [3]) (IC50) was put at 0.3 nM.
